Values of other authors, collected in patent US20200113803A1, “ANHYDROUS COMPOSITION OF SMALL-MOLECULE POLYSACCHARIDES AND APPLICATION THEREOF” (SAGE PHARMACEUTICALS, INC., priority 2016, published 2020).

Settings: background statement

ability of HA to hold water: up to 1000 ml water for 1 g of HA
Substance: Hyaluronic acid [HA]
